Measurements from ChEMBL document CHEMBL4483862, “Open-source discovery of chemical leads for next-generation chemoprotective antimalarials” (2018).

System: Plasmodium berghei
Experiment: Luciferase/luciferin-expressing antifolate-resistant parasites were used to infect a culture of HepG2 cells that were pre-incubated with compounds. Infected hepatocytes emit light due to the luciferase reaction. Assay results are presented as the percent inhibition of light emission compared to control. […]
Format: functional
Conditions: sporozoite; for IC90: read-out: LUCIFERASE INFECTION ASSAY - IC90
[1] = read-out: LUCIFERASE INFECTION ASSAY - IC50

| SMILES | IC90 [µM] | also measured |
| --- | --- | --- |
| O=C(Nc1nn[nH]n1)c1ccc(S(=O)(=O)N2CCCCCC2)cc1 | 9.99 | IC50 (PBLUC_HILL_SLOPE 18.6, PBLUC_R_SQUARED 0.124, read-out: LUCIFERASE INFECTION ASSAY - IC50): 8.88 µM |
| COc1ccc(COC(=O)c2cc(C)nc3ccccc23)cc1F | 0.157 | IC50 (HEPG2TOX_HILL_SLOPE 0.536, HEPG2TOX_R_SQUARED 0.687, PBLUC_HILL_SLOPE 9.99, PBLUC_R_SQUARED 0.341, read-out: LUCIFERASE INFECTION ASSAY - IC50): 0.126 µM |
| CCCC/C=C/c1cnc2ccc(NC(CC)CO)nn12 (configuration not stated) | > 11.4 | IC50 (PBLUC_HILL_SLOPE 1.69, PBLUC_R_SQUARED 0.254, read-out: LUCIFERASE INFECTION ASSAY - IC50): 7.08 µM |
| COc1cc(OC)cc(-c2cn3c(-c4ccc(CO)cc4)cnc3cn2)c1 | 8.34 | IC50 (PBLUC_HILL_SLOPE 5.1, PBLUC_R_SQUARED 0.643, read-out: LUCIFERASE INFECTION ASSAY - IC50): 5.42 µM |
| CC(C)(C)OC(=O)N1CCN(CN2C(=O)NC3(CCCCC3)C2=O)CC1 | > 10 | IC50 [1]: > 10 µM |
| O=C(CSc1nnc(C2CC2)o1)NCCC1=CCCCC1 | 3.33 | IC50 (PBLUC_HILL_SLOPE 15.1, PBLUC_R_SQUARED 0.587, read-out: LUCIFERASE INFECTION ASSAY - IC50): 2.88 µM |
| CC(=O)Nc1ccccc1OCC(=O)NC(=O)NC(C)C1CC2CCC1C2 (configuration not stated) | > 10 | IC50 [1]: 5.71 µM |
| Cc1cc2occ(CC(=O)N(c3ccc(F)cc3)c3nc4ccccc4s3)c2cc1C(C)C | > 10 | IC50 (FFLUC_HILL_SLOPE 13, FFLUC_R_SQUARED 0.172, read-out: LUCIFERASE INFECTION ASSAY - IC50): > 10 µM |
| CC1=Nn2cc(-c3ccccc3)nc2SC1c1ccccc1 (configuration not stated) | 1.79 | IC50 (FFLUC_HILL_SLOPE 0.814, FFLUC_R_SQUARED 0.91, PBLUC_HILL_SLOPE 0.719, PBLUC_R_SQUARED 0.79, read-out: LUCIFERASE INFECTION ASSAY - IC50): 0.084 µM |
| O=C(/C=C/c1ccc(Cl)c(Cl)c1)NNC(=O)C1COc2ccccc2O1 (configuration not stated) | 9.08 | IC50 (PBLUC_HILL_SLOPE 3.24, PBLUC_R_SQUARED 0.588, read-out: LUCIFERASE INFECTION ASSAY - IC50): 4.61 µM |
| COCOc1ccc(-c2cc(-c3cccc(NC(C)=O)c3)cnc2N)cc1 | 5.97 | IC50 (PBLUC_HILL_SLOPE 4.33, PBLUC_R_SQUARED 0.629, read-out: LUCIFERASE INFECTION ASSAY - IC50): 3.59 µM |
| CSc1sc(-c2nc(C)cs2)c(C)c1-c1ccnc(SCc2c(Cl)cccc2Cl)n1 | > 6.46 | IC50 (FFLUC_HILL_SLOPE 1.79, FFLUC_R_SQUARED 0.514, read-out: LUCIFERASE INFECTION ASSAY - IC50): > 6.46 µM |
| COc1cccc(CNCCCSc2nnnn2-c2ccccc2)c1 | > 9.28 | IC50 [1]: > 9.28 µM |
| O=C(N/N=C/c1ccc(N2CCOCC2)s1)c1ccc(COc2cccc3cccnc23)cc1 | > 10 | IC50 (HEPG2TOX_HILL_SLOPE 12.5, HEPG2TOX_R_SQUARED 0.767, PBLUC_HILL_SLOPE 2.46, PBLUC_R_SQUARED 0.528, read-out: LUCIFERASE INFECTION ASSAY - IC50): 5.64 µM |
| O=C(O)c1cccc2cccc([S+]([O-])c3ccccc3CO)c12 (configuration not stated) | > 10.1 | IC50 (FFLUC_HILL_SLOPE 17.8, FFLUC_R_SQUARED 0.335, read-out: LUCIFERASE INFECTION ASSAY - IC50): > 10.1 µM |
| CN1/C(=C\C(=O)CSc2nnc3c(n2)[nH]c2ccccc23)C(C)(C)c2ccccc21 | > 10 | IC50 (HEPG2TOX_HILL_SLOPE 7.55, HEPG2TOX_R_SQUARED 0.316, read-out: LUCIFERASE INFECTION ASSAY - IC50): > 10 µM |
| Cc1cccc(C(=O)NC(C(=O)Nc2ccn(C)n2)C(C)C)c1 (configuration not stated) | > 10 | IC50 [1]: > 10 µM |
| CC(=O)Nc1ccc(Sc2ccc(S(C)(=O)=O)cc2[N+](=O)[O-])cc1 | > 10 | IC50 [1]: > 10 µM |
| Cc1ccc(Cn2ncc3c(C(=O)Nc4ccc(C)c(F)c4)cc(C)nc32)cc1 | > 10 | IC50 [1]: > 10 µM |
| Cc1cc(C)c(SC(C)C(=O)NC(N)=O)c(C)c1 (configuration not stated) | > 10 | IC50 [1]: > 10 µM |
| COc1cc(-c2cnc3cnc(-c4ccccc4Cl)cn23)ccc1O | > 9.38 | IC50 (PBLUC_HILL_SLOPE 17.8, PBLUC_R_SQUARED 0.0398, read-out: LUCIFERASE INFECTION ASSAY - IC50): 8.38 µM |

| SMILES | IC90 [µM] | also measured |
| --- | --- | --- |
| CC1CCC(C(C)C)C(OCC(O)CN2C(C)CCCC2C)C1 (configuration not stated) | > 9.12 | IC50 [1]: > 9.12 µM |
| CCOC(=O)c1c(-c2ccccc2)csc1NC(=O)c1cc(-c2ccco2)nc2ccccc12 | 9.72 | IC50 (FFLUC_HILL_SLOPE 28.5, FFLUC_R_SQUARED 0.474, PBLUC_HILL_SLOPE 2.84, PBLUC_R_SQUARED 0.759, read-out: LUCIFERASE INFECTION ASSAY - IC50): 4.48 µM |
| COc1ccc(C2Sc3ccccc3N=C3C2=C(O)c2ccccc23)cc1 (configuration not stated) | 1.84 | IC50 (PBLUC_HILL_SLOPE 1.48, PBLUC_R_SQUARED 0.746, read-out: LUCIFERASE INFECTION ASSAY - IC50): 0.42 µM |
| Cc1cc(=O)oc2cc(Oc3nc(CN4CCOCC4)nc4sc5c(c34)CCCC5)c(Cl)cc12 | > 10 | IC50 (HEPG2TOX_HILL_SLOPE 1.03, HEPG2TOX_R_SQUARED 0.724, read-out: LUCIFERASE INFECTION ASSAY - IC50): > 10 µM |
| CC(C)(C)c1csc(NC(=O)Nc2ccccc2)n1 | > 12 | IC50 (HEPG2TOX_HILL_SLOPE 1.38, HEPG2TOX_R_SQUARED 0.755, PBLUC_HILL_SLOPE 7.68, PBLUC_R_SQUARED 0.272, read-out: LUCIFERASE INFECTION ASSAY - IC50): 9.6 µM |
| Cn1cc(/C=C/C(=O)Nc2nc(-c3ccc4c(c3)OCCO4)cs2)cn1 | > 10 | IC50 [1]: 9.99 µM |
| CCN(CC)c1ccc(/C=C2\CCc3cnn(-c4nc(-c5ccccc5)cs4)c32)cc1 | > 10 | IC50 (FFLUC_HILL_SLOPE 3.85, FFLUC_R_SQUARED 0.639, read-out: LUCIFERASE INFECTION ASSAY - IC50): > 10 µM |
| CCOC(=O)c1c(-c2ccc(Cl)cc2)csc1Nc1nc(S(=O)(=O)c2ccc(Cl)cc2)c(Cl)s1 | > 10 | IC50 [1]: 5.47 µM |
| Cc1cc(N2CCN(C(=O)c3cc(-c4ccccc4)nc4c3cnn4C(C)C)CC2)nc(C(C)C)n1 | > 10 | IC50 (FFLUC_HILL_SLOPE 16.4, FFLUC_R_SQUARED 0.735, read-out: LUCIFERASE INFECTION ASSAY - IC50): > 10 µM |
| C[C@H](Nc1ccc(C(F)(F)F)cc1[N+](=O)[O-])C(=O)Nc1nc2ccccc2[nH]1 | 6.29 | IC50 (PBLUC_HILL_SLOPE 74.9, PBLUC_R_SQUARED 0.587, read-out: LUCIFERASE INFECTION ASSAY - IC50): 6.11 µM |
| O=C(Nc1cc(Cl)ccc1N1CCOCC1)c1ccccc1NS(=O)(=O)c1ccc(Br)s1 | 1.16 | IC50 (FFLUC_HILL_SLOPE 16.2, FFLUC_R_SQUARED 0.517, HEPG2TOX_HILL_SLOPE 1.46, HEPG2TOX_R_SQUARED 0.905, PBLUC_HILL_SLOPE 14.3, PBLUC_R_SQUARED 0.479, read-out: LUCIFERASE INFECTION ASSAY - IC50): 0.994 µM |
| CCOC(=O)c1c(C)[nH]c(C(=O)C(C)OC(=O)c2c3c(nc4ccccc24)/C(=C/c2ccc(F)cc2)CCC3)c1C (configuration not stated) | > 10 | IC50 (HEPG2TOX_HILL_SLOPE 0.182, HEPG2TOX_R_SQUARED 0.103, read-out: LUCIFERASE INFECTION ASSAY - IC50): > 10 µM |
| Cc1c(S(=O)(=O)c2ccc(Cl)cc2)csc1NC(=O)Nc1cc(C2CC2)n[nH]1 | > 7.55 | IC50 (HEPG2TOX_HILL_SLOPE 0.224, HEPG2TOX_R_SQUARED 0.199, PBLUC_HILL_SLOPE 2.99, PBLUC_R_SQUARED 0.447, read-out: LUCIFERASE INFECTION ASSAY - IC50): 4.79 µM |
| Cc1cc(C(=O)NCC#Cc2cccc(C(F)(F)F)c2)on1 | 8.21 | IC50 (PBLUC_HILL_SLOPE 5.05, PBLUC_R_SQUARED 0.342, read-out: LUCIFERASE INFECTION ASSAY - IC50): 5.32 µM |
| O=C(OCc1ccccc1)C1=C2Sc3ccccc3N2C(=O)NC1(c1ccccc1)C(F)(F)F (configuration not stated) | > 10 | IC50 (FFLUC_HILL_SLOPE 11.9, FFLUC_R_SQUARED 0.439, PBLUC_HILL_SLOPE 2.55, PBLUC_R_SQUARED 0.528, read-out: LUCIFERASE INFECTION ASSAY - IC50): 6.8 µM |
| Cc1nc(CSc2nc3c(c(-c4ccccc4)c2C#N)C(=O)CC(C)(C)C3)cs1 | > 10 | IC50 (HEPG2TOX_HILL_SLOPE 0.218, HEPG2TOX_R_SQUARED 0.218, PBLUC_HILL_SLOPE 7.94, PBLUC_R_SQUARED 0.255, read-out: LUCIFERASE INFECTION ASSAY - IC50): 9.59 µM |
| COc1cccc(-c2ccnc3n[nH]c(-c4cccc(C(F)(F)F)c4)c23)c1 | > 10 | IC50 [1]: > 10 µM |
| CN(C)c1cc(CNC(=O)c2cc3c(F)cccc3s2)ccn1 | 7.57 | IC50 (HEPG2TOX_HILL_SLOPE 10.4, HEPG2TOX_R_SQUARED 0.0222, PBLUC_HILL_SLOPE 5.26, PBLUC_R_SQUARED 0.456, read-out: LUCIFERASE INFECTION ASSAY - IC50): 4.99 µM |
| CCOC(=O)C1C(C)=NC2=C(C(=O)CC(c3ccc(F)cc3)C2)C1c1ccccc1C(F)(F)F (configuration not stated) | > 6.97 | IC50 (FFLUC_HILL_SLOPE 9.32, FFLUC_R_SQUARED 0.536, HEPG2TOX_HILL_SLOPE 7.97, HEPG2TOX_R_SQUARED 0.882, PBLUC_HILL_SLOPE 14, PBLUC_R_SQUARED 0.0949, read-out: LUCIFERASE INFECTION ASSAY - IC50): 6.64 µM |
| CC1CCc2sc(C(=O)N(C)Cc3nc(=O)c4ccccc4[nH]3)cc2C1 (configuration not stated) | 6.74 | IC50 (PBLUC_HILL_SLOPE 2.24, PBLUC_R_SQUARED 0.489, read-out: LUCIFERASE INFECTION ASSAY - IC50): 2.52 µM |
